From patent publication US11866405B2, “Substituted indazoles as IRAK4 inhibitors” (AstraZeneca AB, priority 2020, dated 2024) come the findings set out here.

pIC50: −log10 of the molar value.

Experiment [1] deals with human recombinant IRAK4 protein (Homo sapiens (Human), UniProt Q9NWZ3). Put plainly: IRAK4 enzyme assay (mass spectrometry readout). Format: biochemical. As to conditions: 3 mM ATP, 0.2 nM enzyme; geometric mean of at least n=2, * single experiment. In outline: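 0.2 nM IRAK4 preincubated 15 min at room temperature with compound (10-point half-log series, top 1 μM or 10 μM) in pH 7.4 Tris buffer with 3 mM ATP; 10 μM peptide substrate added, 2 h at room temperature, formic acid stop. Phospho/unphospho peptide ratio by LC-MS/MS; potency from curve fit, geometric mean of n≥2 or single run.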
human recombinant IRAK4 protein, sequence (Q9NWZ3 whole entry): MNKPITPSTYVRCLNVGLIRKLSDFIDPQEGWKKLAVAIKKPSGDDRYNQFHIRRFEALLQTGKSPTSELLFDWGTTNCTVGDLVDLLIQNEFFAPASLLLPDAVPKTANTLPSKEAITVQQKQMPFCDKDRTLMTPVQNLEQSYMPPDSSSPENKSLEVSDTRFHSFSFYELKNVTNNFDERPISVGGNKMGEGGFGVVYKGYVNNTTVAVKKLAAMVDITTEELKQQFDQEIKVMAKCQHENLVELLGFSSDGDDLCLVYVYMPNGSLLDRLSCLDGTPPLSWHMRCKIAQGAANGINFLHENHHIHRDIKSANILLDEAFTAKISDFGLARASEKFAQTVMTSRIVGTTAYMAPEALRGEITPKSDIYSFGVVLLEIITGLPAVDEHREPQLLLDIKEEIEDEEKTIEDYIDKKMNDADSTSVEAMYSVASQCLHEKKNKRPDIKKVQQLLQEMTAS

Experiment [2] deals with LPS-induced lung inflammation. Put plainly: Mouse model of LPS-induced airway inflammation. The experiment is classed as in vivo. As to conditions: mice, 5, 15 and 50 mg/kg oral, inhaled LPS 1 mg/mL, 4 h after challenge. The protocol:
FIG. 1. In vivo dose response of Example 89 in an acute mouse model of LPS-induced lung inflammation. Example 89 compound was dosed orally to mice 1 h prior to inhaled LPS challenge (1 mg/mL). 4 h after the challenge, the animals were terminated and the levels of IL-6 and TNF-α released in the bronchoalveolar lavage fluid were measured. […] Individual data points represent individual animals, and bars represent the mean value of each group. Statistical differences between groups were calculated with a one-way ANOVA test comparing treatment groups to the vehicle group. **p<0.01, ***p<0.001. The ability of IRAK4 inhibitors according to the specification to reduce inflammatory cytokines and TNF-α in vivo is thus established.
In Vivo Effect of IRAK4 Inhibition in a Mouse Model of LPS-Induced Airway Inflammation
TLRs act as a first sensor of microbes and allergens in the airways and can mediate a rapid inflammatory response. A mouse model of inhaled LPS challenge was used to study the effect of IRAK4 inhibition on the processes of an acute TLR4-driven airway inflammation. […] The levels of proinflammatory cytokines were measured in the BALF supernatant using MSD multiplex assay 8 mice per treatment group were used, except for the LPS/vehicle group where 20 mice were used. […]

As a reminder, the pIC50 is −log10 of the IC50, conventionally taken in molar units. For `COc1cc2nn([C@@H]3CC[C@@H](O)C[C@H]3C)cc2cc1C(=O)Nc1cnc2cccnn12` [Example 89, 2-((1R,2R,4R)-4-hydroxy-2-methylcyclohexyl)-N-(imidazo[1,2-b]pyridazin-3-yl)-6-methoxy-2H-indazole-5-carboxamide], the pIC50 in experiment [1] is 8.96. Also, in experiment [2], the “levels of IL-6 in bronchoalveolar lavage fluid” value was “reduced the levels of IL-6 and TNF-α upon inhaled LPS challenge, in a dose-dependent manner”; the “levels of TNF-α in bronchoalveolar lavage fluid” value was “reduced the levels of IL-6 and TNF-α upon inhaled LPS challenge, in a dose-dependent manner”.
